The results in this text go back to the supplement of paper PMC10307832.

What all share (assay): relative viability (nuclei count vs DMSO), 5 days (fraction); higher = more cells survive
Compound in assay [1]: CCn1c(-c2nonc2N)nc2cnc(Oc3cccc(NC(=O)c4ccc(OCCN5CCOCC5)cc4)c3)cc21 + CC(C)C[C@H](NC(=O)[C@H](Cc1ccccc1)NC(=O)c1cnccn1)B(O)O [Bortezomib] (partner 0.002 µM)
The method in brief:
(§1)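 Relative viability was taken as the ratio of nuclei in treated wells to nuclei in vehicle wells. Lung cancer cell lines in 1536-well plates received compounds by pin tool one day after seeding, either one drug alone or a fixed anchor-drug dose plus five library-drug doses (not always all listed) in √10 steps. Nuclei were counted on 4× images after 5 days of treatment, and values are medians of duplicate plates.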

Compound in assay [2]: CCC1=CN=CN=C1N2CCN(CC2)CC3=NC4=C(N3)C=C(C=C4)C(F)(F)F + CC(=O)c1c(C)c2cnc(Nc3ccc(N4CCNCC4)cn3)nc2n(C2CCCC2)c1=O [Palbociclib] (partner 0.5 µM)
In short, it runs like this:
as §1

Compound in assay [3]: CCn1c(-c2nonc2N)nc2cnc(Oc3cccc(NC(=O)c4ccc(OCCN5CCOCC5)cc4)c3)cc21 + COc1cc2c(Oc3ccc(NC(=O)C4(C(=O)Nc5ccc(F)cc5)CC4)cc3F)ccnc2cc1OCCCN1CCOCC1 [Foretinib] (partner 0.25 µM)
In short, it runs like this:
as §1

Compound in assay [4]: CCn1c(-c2nonc2N)nc2cnc(Oc3cccc(NC(=O)c4ccc(OCCN5CCOCC5)cc4)c3)cc21 + CS(=O)(=O)CCNCc1ccc(-c2ccc3ncnc(Nc4ccc(OCc5cccc(F)c5)c(Cl)c4)c3c2)o1 [Lapatinib] (partner 2 µM)
The method in brief: as §1

For NCI-H2023, the relative viability in assay [1] (first compound 0.04 µM) was 1.25; in assay [1] (first compound 0.1265 µM), 0.918; in assay [1] (first compound 0.4 µM) it was 0.621; in assay [1] (first compound 1.265 µM), 0.504; in assay [1] (first compound 4 µM) it was 0.394; in assay [2] (first compound 0.04 µM), 0.422. Also, the relative viability is 0.347 in assay [2] (first compound 0.1265 µM); 0.358 in assay [2] (first compound 0.4 µM); 0.376 in assay [2] (first compound 1.265 µM); 0.345 in assay [2] (first compound 4 µM); 0.897 in assay [3] (first compound 0.04 µM); 0.988 in assay [3] (first compound 0.1265 µM). Further, the relative viability amounted to 1.03 in assay [3] (first compound 0.4 µM); 0.71 in assay [3] (first compound 1.265 µM); 0.451 in assay [3] (first compound 4 µM); 1.25 in assay [4] (first compound 0.04 µM); 0.797 in assay [4] (first compound 0.1265 µM); 0.515 in assay [4] (first compound 0.4 µM). Moreover, the relative viability is 0.555 in assay [4] (first compound 1.265 µM) and 0.373 in assay [4] (first compound 4 µM).
On to NCI-H2085, for which the relative viability in assay [1] (first compound 0.04 µM) is 1.11; in assay [1] (first compound 0.1265 µM), 1.01; in assay [1] (first compound 0.4 µM), 0.86; in assay [1] (first compound 1.265 µM) it was 0.872; in assay [1] (first compound 4 µM) it was 0.861; in assay [2] (first compound 0.04 µM) it was 0.371. Besides, the relative viability came to 0.398 in assay [2] (first compound 0.1265 µM); 0.473 in assay [2] (first compound 0.4 µM); 0.488 in assay [2] (first compound 1.265 µM); 0.442 in assay [2] (first compound 4 µM); 1.2 in assay [3] (first compound 0.04 µM); 1.15 in assay [3] (first compound 0.1265 µM). For the same cell line, the relative viability in assay [3] (first compound 0.4 µM) came to 0.93; in assay [3] (first compound 1.265 µM), 0.858; in assay [3] (first compound 4 µM), 0.806; in assay [4] (first compound 0.04 µM) it was 0.865; in assay [4] (first compound 0.1265 µM), 0.75; in assay [4] (first compound 0.4 µM), 0.684. Further, the relative viability in assay [4] (first compound 1.265 µM) is 0.602; in assay [4] (first compound 4 µM) it was 0.714.
As to NCI-H2087, the relative viability in assay [1] (first compound 0.1265 µM) turned out to be 0.591; in assay [1] (first compound 0.4 µM) it was 0.778; in assay [1] (first compound 1.265 µM), 0.473; in assay [1] (first compound 4 µM), 0.459; in assay [2] (first compound 0.04 µM), 0.264; in assay [2] (first compound 0.1265 µM), 0.235. Further, the relative viability in assay [2] (first compound 0.4 µM) worked out at 0.242; in assay [2] (first compound 1.265 µM) it was 0.184; in assay [2] (first compound 4 µM), 0.201; in assay [3] (first compound 0.04 µM) it was 1.1; in assay [3] (first compound 0.1265 µM), 0.911; in assay [3] (first compound 0.4 µM) it was 1.01. Also, the relative viability in assay [3] (first compound 1.265 µM) turned out to be 0.876; in assay [3] (first compound 4 µM) it was 0.695; in assay [4] (first compound 0.1265 µM) it was 0.693; in assay [4] (first compound 0.4 µM), 0.871; in assay [4] (first compound 1.265 µM) it was 0.499; in assay [4] (first compound 4 µM) it was 0.677.
As to NCI-H2126, the relative viability in assay [1] (first compound 0.04 µM) is 1.14; in assay [1] (first compound 0.1265 µM) it was 1.13; in assay [1] (first compound 0.4 µM), 0.918; in assay [1] (first compound 1.265 µM) it was 1.08; in assay [1] (first compound 4 µM), 1.08; in assay [2] (first compound 0.04 µM), 0.365. Also, the relative viability was determined as 0.333 in assay [2] (first compound 0.1265 µM); 0.376 in assay [2] (first compound 0.4 µM); 0.354 in assay [2] (first compound 1.265 µM); 0.369 in assay [2] (first compound 4 µM); 1.22 in assay [3] (first compound 0.04 µM); 1.08 in assay [3] (first compound 0.1265 µM). Also, the relative viability in assay [3] (first compound 4 µM) was determined as 1.29; in assay [4] (first compound 0.04 µM), 0.764; in assay [4] (first compound 0.1265 µM), 0.782; in assay [4] (first compound 0.4 µM), 0.541; in assay [4] (first compound 1.265 µM), 0.742; in assay [4] (first compound 4 µM), 0.825.
Turning to NCI-H2228, the relative viability in assay [1] (first compound 0.04 µM) was found to be 1.12; in assay [1] (first compound 0.1265 µM) it was 0.897; in assay [1] (first compound 0.4 µM), 0.921; in assay [1] (first compound 1.265 µM), 0.591; in assay [1] (first compound 4 µM), 0.839; in assay [2] (first compound 0.1265 µM) it was 0.595. For the same cell line, the relative viability in assay [2] (first compound 0.4 µM) turned out to be 0.684; in assay [2] (first compound 1.265 µM), 0.472; in assay [2] (first compound 4 µM), 0.877; in assay [3] (first compound 0.04 µM), 1.28; in assay [3] (first compound 0.1265 µM), 0.946; in assay [3] (first compound 0.4 µM), 1.03. Also, the relative viability in assay [3] (first compound 1.265 µM) worked out at 0.744; in assay [3] (first compound 4 µM) it was 0.731; in assay [4] (first compound 0.04 µM) it was 1.79; in assay [4] (first compound 0.1265 µM), 0.81; in assay [4] (first compound 0.4 µM), 0.954; in assay [4] (first compound 1.265 µM), 0.756. Also, the relative viability in assay [4] (first compound 4 µM) was found to be 0.727.
Regarding NCI-H2347, the relative viability stood at 1.1 in assay [1] (first compound 0.04 µM); 0.959 in assay [1] (first compound 0.1265 µM); 0.792 in assay [1] (first compound 0.4 µM); 0.49 in assay [1] (first compound 1.265 µM); 0.649 in assay [1] (first compound 4 µM); 0.386 in assay [2] (first compound 0.04 µM). The relative viability in assay [2] (first compound 0.1265 µM) stood at 0.396; in assay [2] (first compound 0.4 µM) it was 0.424; in assay [2] (first compound 1.265 µM), 0.368; in assay [2] (first compound 4 µM), 0.422; in assay [3] (first compound 0.04 µM), 1.08; in assay [3] (first compound 0.1265 µM) it was 1.27. For the same cell line, the relative viability in assay [3] (first compound 0.4 µM) came out at 1.26; in assay [3] (first compound 1.265 µM), 0.459; in assay [3] (first compound 4 µM), 0.585; in assay [4] (first compound 0.04 µM) it was 0.833; in assay [4] (first compound 0.1265 µM), 0.911; in assay [4] (first compound 0.4 µM) it was 0.704. Moreover, the figures for the relative viability in assay [4] (first compound 1.265 µM) and in assay [4] (first compound 4 µM) were 0.446 and 0.536, respectively.
As for NCI-H2405, the relative viability is 1.05 in assay [1] (first compound 0.04 µM); 0.744 in assay [1] (first compound 0.1265 µM); 0.348 in assay [1] (first compound 0.4 µM); 0.277 in assay [1] (first compound 1.265 µM); 0.973 in assay [1] (first compound 4 µM); 0.578 in assay [2] (first compound 0.04 µM). The relative viability came to 0.53 in assay [2] (first compound 0.1265 µM); 0.513 in assay [2] (first compound 0.4 µM); 0.594 in assay [2] (first compound 4 µM); 1.23 in assay [3] (first compound 0.04 µM); 0.999 in assay [3] (first compound 0.1265 µM); 0.485 in assay [3] (first compound 0.4 µM). Moreover, the relative viability in assay [3] (first compound 1.265 µM) is 0.342; in assay [3] (first compound 4 µM), 0.384; in assay [4] (first compound 0.04 µM) it was 1.19; in assay [4] (first compound 0.1265 µM), 0.661; in assay [4] (first compound 0.4 µM), 0.194; in assay [4] (first compound 1.265 µM), 0.336. Also, the relative viability in assay [4] (first compound 4 µM) is 0.316.
